Results as given in US12590332B2, “Composition for diagnosing or treating kidney disease” (INJE UNIVERSITY INDUSTRY-ACADEMIC COOPERATION FOUNDATION, priority 2020, dated 2026).

How the values were obtained:
Balb/c male mice = test: Adriamycin-induced renal injury model; conditions: 11 mg/kg once into tail vein, 4 weeks, FIG. 8
mouse podocyte cell line = test: VSIG4 expression in podocytes (mRNA by PCR, protein by Western blot); format: cell-based
Procedure: The mouse podocyte cell line was mixed with 10% heat inactivated fetal bovine serum, 100 IU/mL of penicillin, and […] of streptomycin in RPMI culture medium and cultured in a humid atmosphere in the presence of 5% CO2 at 37° C. To evaluate VSIG4 expression, low glucose (LG, 5.5 mM) and high glucose (HG, 55 mM), 100 nM angiotensin II, 1.0 μg/mL and 3.0 μg/mL of Adriamycin were treated. The medium in a plate in which cells are being cultured was removed and RNA was extracted using Trizol (Life Technologies, Gaithersburg, MD, USA). Reverse transcription (RT) was performed using a cDNA synthesis kit (Applied biosystems, Roche Inc., Foster City, CA, USA), mRNA expression was evaluated using polymerase chain reaction (PCR), and the expression level was corrected with β-actin or GAPDH. Proteins obtained by treating cell lysates with RIPA buffer were quantified, and 20 μg of protein was separated using 8-15% SDS-PAGE. After separation of the protein by electrophoresis using 10% SDS-PAGE, the protein was transferred to a PVDF membrane (Millipore corporation bedford, USA) using a PAGE transfer buffer (Amersham Life Science, Arlington Heights, IL) at 270 mA for 4 hours, reacted overnight at 4° C. using a blocking solution (5% skim milk), and washed with Tris buffered saline with Tween-20 (TBS-T buffer; 10 mM Tris-Cl, pH 7.8, […] Nacl, 0.05% Tween-20). […]

HK2 cells = test: VSIG4 expression in HK2 renal tubular cells (mRNA by PCR, protein by Western blot); format: cell-based, human; conditions: renal tubular cells treated with TGF-β (10 ng/mL recombinant); FIG. 3
Procedure: HK2 cells (A TCC, Manassan, VA), immortalized human renal proximal tubule cells, were cultured by adding, in a DMEM medium (Mediatech Inc., Corning Subsidiary, Manassas, VA), 10% heat inactivated fetal bovine serum (Tissue Culture Biologicals, Tulare, CA, USA), 100 IU/mL of penicillin, and […] of streptomycin in a humid atmosphere in the presence of 5% CO2 at 37° C.
[…] The purchased scrambled siRNA (control siRNA) and VSIG4 siRNA (z391g, Santa Cruz Biotechnology, Santa Cruz, CA) were each transfected by 200 MOI to suppress VSIG4 expression in HK2 cells.
To inhibit TGF-β expression, TGF-β-siRNA (Santa Cruz Biotechnology, Santa Cruz, CA, USA) was used, and 10 ng/mL of recombinant TGF-β (R&D systems, Minneapolis, MN, USA) was used for TGF-β stimulation experiment.
The medium in a plate in which cells are being cultured was removed and RNA was extracted using Trizol (Life Technologies, Gaithersburg, MD, USA). Reverse transcription (RT) was performed using a cDNA synthesis kit (Applied biosystems, Roche Inc., Foster City, CA, USA), mRNA expression was evaluated using polymerase chain reaction (PCR), and the expression level was corrected with β-actin or GAPDH.
Proteins obtained by treating cell lysates with RIPA buffer were quantified, and 20 μg of protein was separated using 8-15% SDS-PAGE. […]

COc1cccc2c1C(=O)c1c(O)c3c(c(O)c1C2=O)C[C@@](O)(C(=O)CO)C[C@@H]3O[C@H]1C[C@H](N)[C@H](O)[C@H](C)O1 [Adriamycin]
VSIG4 protein expression (urine) (Balb/c male mice; 24-hour urine, ELISA): significantly increased | albuminuria (Balb/c male mice; 24-hour urine): significantly increased | VSIG4 mRNA expression in kidney tissues (Balb/c male mice): significantly increased | expression of VSIG4 mRNA and protein (mouse podocyte cell line; podocytes, 1.0 μg/mL and 3.0 μg/mL, 12 hours and 24 hours, FIG. 9): increased over time

TGF-β
VSIG4 expression (HK2 cells): increased

angiotensin II (DRVYIHPF; Angiotensin-2; UniProt P01019 25-32, looked up) [main substance of kidney damage used to stimulate podocytes]
expression of VSIG4 mRNA and protein (mouse podocyte cell line; podocytes stimulated with high glucose (55 mM) and angiotensin II (100 nM), compared to low glucose, FIG. 4): increased
